Where a name gives a salt, the structure may show the parent alone. Read-outs that look alike come from different tables or passages of the source.
Experiments:
[1] = In vitro single hydrotrope permeability experiments, coated artificial membranes (Franz cell); format: in vitro ADME
Protocol: The solutions thus contain the exact same concentration of active agent in the presence or absence of hydrotrope. The samples may then be tested for permeability through an artificial membrane under identical conditions so that the effect of the hydrotrope on the permeability of the active can be assessed.
Regenerated cellulose membrane filters are coated with lecithin in dodecane for permeation experiments. […] Air bubbles are removed before donor chamber is clamped. The filter is incubated for 1 h and any excess lecithin solution is then removed. All samples are continuously stirred on a magnetic plate at 300 rpm for duration of pre-incubation and subsequent permeation experiment.
After membrane preparation and equilibration, 240 uL each of formulation at buffer pH 6.8 are added to the donor chamber.

[2] = cited from earlier work; for logP: as listed in table of actives by hydrotrope class; for log P: list of suitable active agents
[3] = system: porcine buccal mucosa; test: Ex vivo permeability experiments, porcine buccal membranes in Franz cells; format: in vitro ADME, domestic pigs (Sus scrofa domestica)
Protocol: Buccal tissue from domestic pigs (Sus scrofa domestica) were obtained from a local abattoir directly after slaughter and immediately placed on ice. Within 2 hours of collection, tissue is prepared for delivery experiments. For permeation experiments tissue is placed in pH 6.8 PBS and epithelium separated from the connective tissue using surgical dissection or by contact in solution (pH 6.8 PBS) heated to 65° C. for 60 seconds. Surgical dissection is preferred method for maintaining intact epithelia with minimal impact on integrity which can occur with heating. After isolation, tissue is placed on Franz cell receiver chamber filled with PBS at pH optimised for permeant solubility and containing micro-stirring bar. Air bubbles are removed before donor chamber is clamped. The exposed epithelial surface is pre-incubated in pH 6.8 PBS in air incubator heated to 37° C. for minimum 15 minutes to equilibrate to temperature. All samples are continuously stirred on a magnetic plate at 300 rpm for duration of pre -incubation and subsequent permeation experiment. After equilibration, the donor chamber buffer is removed by pipette and replaced with active agent solution to be tested. […] At time 0 samples of 200 ul is removed from receiver chamber and 200 ul volume replaced with buffer. Samples taken at timed intervals (standard 15, 30, 60 minutes) are 200 ul volumes removed from side arm of receiver chamber using gel-loading pipette tips. Removed samples are placed in HPLC tubes for HPLC analysis. After each sample is taken the 200 ul volume is replaced with PBS […] buffer to maintain constant volume in receiver chamber (which will dilute slightly each subsequent sample).

[4] = In vivo studies in rabbits, buccal administration, blood PK; set-up: species or system rabbits (Oryctolagus cuniculus) New Zealand White; settings: rabbit, buccal single dose 20 mg, 2.5% caffeine and 7.5% nicotinamide (F4) in comparison to the Base formulation, FIG. 14
Protocol: Ten male rabbits (Oryctolagus cuniculus) Strain New Zealand White (NZW) aged 8-12 weeks were delivered 5 days prior to the experiment for acclimatisation. The animals were kept in a controlled environment (targeted ranges: temperature 21±3° C., humidity 30-70%), with a light/dark cycle each of 12 hours, and under barrier (quarantine) conditions. Temperature and relative humidity was monitored continuously throughout the study duration. Feed consisted of Rabbit and Guinea Pig pellets. Municipal town water was supplied ad libitum. Dietary enrichment was provided during the acclimation period in the form of fresh fruit and vegetables. Enrichment items were not provided following randomisation into study groups and during dose administration.
Prior to dose administration, a total of ten male NZW rabbits were randomized into two groups of five based on body weight. Each animal group was allocated to receive a different sildenafil Formulation (either sildenafil Formulation 4 (F4) or sildenafil Base formulation (see Example 2)). […]
Portions of whole blood (400 μL) were collected into K2EDTA blood tubes then centrifuged and the resulting […] prior to analysis by LC-MS/MS. Peak concentration in blood (Cmax), Time to reach Cmax (Tmax), half-life (t1/2) and area under curve (AUC) were calculated.

[5] = single hydrotrope screen, formulation at buffer pH 6.8, same active concentration with and without hydrotrope
[6] = as listed with results of FIGS. 3-9
[7] = formulated with Class A hydrotrope caffeine, sweeteners and flavours vs same formulation minus the hydrotrope content, FIG. 13
[8] = sildenafil citrate formulations containing hydrotropes (Table 4) vs Base, FIGS. 11A and 11B

SMILES | penetration through an artificial membrane in the presence of various hydrotropes (most effective hydrotrope) [1, 5] | log P or log D [2, 6] | logP [2] | log P [2] | also measured
O=C(O)Cc1ccccc1Nc1c(Cl)cccc1Cl [Diclofenac sodium, diclofenac sodium] | – | – | – | – | penetration through an artificial membrane in the presence of various hydrotropes (most effective hydrotrope) ([1]; hydroalcoholic solution): caffeine most effective; log P or log D ([2]; hydroalcoholic solution): 4.75
CC(C)Cc1ccc(C(C)C(=O)O)cc1 (stereo not shown) [Ibuprofen, ibuprofen] | no improvement | 3.5 | – | – | –
CN(C)CCOC(C)(c1ccccc1)c1ccccn1 (stereo not shown) [Doxylamine succinate, doxylamine succinate] | benzoic acid most effective | 2.9 | 2.96 | – | early permeation [3, 7]: does not affect; total permeation [3, 7]: increases total permeation
Cc1nccn1CC1CCc2c(c3ccccc3n2C)C1=O (stereo not shown) [Ondansetron HCl, ondansetron hydrochloride] | nicotinamide or caffeine most effective | 2.4 | Ondansetron HCl (logP 2.4 | 2.4 | hydrotrope class giving the greatest increases in permeability [1]: Class A hydrotropes
CNS(=O)(=O)Cc1ccc2[nH]cc(CCN(C)C)c2c1 [Sumatriptan succinate, sumatriptan succinate] | benzoic acid most effective | 1.7 | Sumatriptan succinate (logP 0.93 | 0.93 | log D ([2]; pH 6): 1.7
Cc1ccc(-c2nc3ccc(C)cn3c2CC(=O)N(C)C)cc1 [Zolpidem tartrate, zolpidem tartrate] | citric acid most effective | 1.2 | Zolpidem tartrate (logP 1.2 | 1.2 | –
Cn1c(=O)c2c(ncn2C)n(C)c1=O [caffeine] | – | – | – | – | effect on early permeation [3, 8]: limited effect; effect on total permeation [3, 8]: increases total permeation
CCCc1nn(C)c2c(=O)[nH]c(-c3cc(S(=O)(=O)N4CCN(C)CC4)ccc3OCC)nc12 [Sildenafil citrate, sildenafil citrate] | – | – | – | – | bioavailability of sildenafil [4]: marked increase; log D ([2]; pH 7): 1.6; log P or log D ([2]; pH 7): 1.6
